Laboratory results taken from PubChem BioAssay (NCI).
Values joined by “and” are separate entries in the source; they are usually repeats but may differ in a detail not shown here. Identical values can stand only once.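 All cell lines were grown in 96-well plates and treated with compound for 48 hours. GI50 = concentration required for 50% inhibition of growth. Definition used: TGI = concentration required for complete inhibition of growth.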

Tests used:
Assay in all cases: growth of human tumour cells (NCI), 48 h
SNB-75 CNS = test system: SNB-75 CNS
EKVX NSCLC = test system: EKVX NSCLC
SR leukemia = test system: SR leukemia
HCT-116 colon = test system: HCT-116 colon
MOLT-4 leukemia = test system: MOLT-4 leukemia
MALME-3M melanoma = test system: MALME-3M melanoma
SK-MEL-28 melanoma = test system: SK-MEL-28 melanoma
HOP-62 NSCLC = test system: HOP-62 NSCLC
TK-10 renal = test system: TK-10 renal
KM12 colon = test system: KM12 colon

## O=C(NO)c1ccc(Cn2c(=O)n(-c3ccccc3)c(=O)c3ccccc32)cc1
SNB-75 CNS
  GI50: 1.88 µM
  TGI: 5.35 µM
EKVX NSCLC
  GI50: 1.11 µM
  TGI: 2.69 µM
SR leukemia
  GI50: 1680 nM
  TGI: > 100 µM
HCT-116 colon
  GI50: 324 nM
  TGI: 0.898 µM
MOLT-4 leukemia
  GI50: 848 nM
  TGI: > 100 µM
MALME-3M melanoma
  GI50: 0.473 µM
  TGI: 2.34 µM
SK-MEL-28 melanoma
  GI50: 0.519 µM
  TGI: 2.93 µM
HOP-62 NSCLC
  GI50: 1320 nM
  TGI: 3.24 µM
TK-10 renal
  GI50: 1020 nM
  TGI: 8.08 µM
KM12 colon
  GI50: 1110 nM
  TGI: 2.73 µM

## CN(C)CC1CCCCCC(Br)C1=O (centres undefined)
SNB-75 CNS
  TGI: > 100 µM
EKVX NSCLC
  TGI: 30.8 µM
SR leukemia
  TGI: 7.14 µM
HCT-116 colon
  TGI: 5.1 µM
MOLT-4 leukemia
  TGI: 2.83 µM
MALME-3M melanoma
  TGI: 17.6 µM
SK-MEL-28 melanoma
  TGI: 34 µM
HOP-62 NSCLC
  TGI: 47.3 µM
TK-10 renal
  TGI: 17.7 µM
KM12 colon
  TGI: 41 µM

## CCCCCCCCCCCC1=NC(C)(C)CN1CC(C)O (centres undefined)
SNB-75 CNS
  GI50: 9.26 µM
  TGI: 21.3 µM
EKVX NSCLC
  GI50: 11.2 µM
  TGI: 25.2 µM
SR leukemia
  GI50: 1470 nM
  TGI: 3.75 µM
HCT-116 colon
  GI50: 2060 nM
  TGI: 4.9 µM
MOLT-4 leukemia
  GI50: 2830 nM
  TGI: 8.51 µM
MALME-3M melanoma
  GI50: 5.64 µM
  TGI: 20.4 µM
SK-MEL-28 melanoma
  GI50: 1.75 µM
  TGI: 3.26 µM
HOP-62 NSCLC
  GI50: 4750 nM
  TGI: 17.4 µM
TK-10 renal
  GI50: 10300 nM
  TGI: 22.7 µM
KM12 colon
  GI50: 2250 nM
  TGI: 4.84 µM

## CC(C)C[CH2][Ge]([CH2]CC(C)C)([CH2]CC(C)C)[CH2]CC(C)C
SNB-75 CNS
  GI50: > 100 µM
  TGI: > 100 µM
EKVX NSCLC
  GI50: > 100 µM
  TGI: > 100 µM
SR leukemia
  GI50: > 100000 nM
  TGI: > 100 µM
HCT-116 colon
  GI50: > 100000 nM
  TGI: > 100 µM
MOLT-4 leukemia
  GI50: > 100000 nM
  TGI: > 100 µM
SK-MEL-28 melanoma
  GI50: > 100 µM
  TGI: > 100 µM
HOP-62 NSCLC
  GI50: > 100000 nM
  TGI: > 100 µM
TK-10 renal
  GI50: > 100000 nM
  TGI: > 100 µM
KM12 colon
  GI50: > 100000 nM
  TGI: > 100 µM

## O=C(Nc1ccc(Nc2ccncc2)cc1)c1ccc(Nc2ccnc3ccc([N+](=O)[O-])cc23)cc1[N+](=O)[O-]
SNB-75 CNS
  GI50: 16 µM
  TGI: 50.6 µM
EKVX NSCLC
  GI50: 22.5 µM
  TGI: > 100 µM
SR leukemia
  GI50: 16600 nM
  TGI: 38.8 µM
HCT-116 colon
  GI50: 23700 nM
  TGI: > 100 µM
MOLT-4 leukemia
  GI50: 43900 nM
  TGI: > 100 µM
SK-MEL-28 melanoma
  GI50: 5.26 µM
  TGI: > 46.1 µM
HOP-62 NSCLC
  GI50: 24800 nM
  TGI: > 100 µM
TK-10 renal
  GI50: 27900 nM
  TGI: > 80.2 µM
KM12 colon
  GI50: 6470 nM
  TGI: > 100 µM

## O=C(Nc1ccc(Oc2ccc(NC(=O)Nc3ccc([N+](=O)[O-])cc3)cc2)cc1)Nc1ccc([N+](=O)[O-])cc1
SNB-75 CNS
  GI50: 2.78 µM
  TGI: > 100 µM
EKVX NSCLC
  GI50: 2.32 µM
  TGI: > 30.9 µM
SR leukemia
  GI50: 1350 nM
  TGI: 4.87 µM
HCT-116 colon
  GI50: 1170 nM
  TGI: 9.19 µM
MOLT-4 leukemia
  GI50: 1190 nM
  TGI: 4.8 µM
MALME-3M melanoma
  GI50: 1.93 µM
  TGI: 6.81 µM
SK-MEL-28 melanoma
  GI50: 3.28 µM
  TGI: 43.2 µM
HOP-62 NSCLC
  GI50: 2640 nM
  TGI: 7.96 µM
TK-10 renal
  GI50: 2110 nM
  TGI: > 26.7 µM
KM12 colon
  GI50: 1530 nM
  TGI: > 29.7 µM

## Nc1nc(-c2ccc(Cl)cc2)cc(-c2ccc(Cl)cc2)c1-c1nc2ccccc2o1
SNB-75 CNS
  GI50: 15 µM
  TGI: 30 µM
EKVX NSCLC
  GI50: 16.3 µM
  TGI: 31.4 µM
SR leukemia
  GI50: 14300 nM
  TGI: 30.5 µM
HCT-116 colon
  GI50: 14800 nM
  TGI: 30.5 µM
MOLT-4 leukemia
  GI50: 12100 nM
  TGI: 27.4 µM
MALME-3M melanoma
  GI50: 14.4 µM
  TGI: 29.9 µM
SK-MEL-28 melanoma
  GI50: 17.4 µM
  TGI: 34.3 µM
HOP-62 NSCLC
  GI50: 13000 nM
  TGI: 27.1 µM
TK-10 renal
  GI50: 20000 nM
  TGI: 41.9 µM
KM12 colon
  GI50: 12200 nM
  TGI: 27.2 µM

## O=C1C(Br)=C(Br)C(=O)c2ccccc21
SNB-75 CNS
  GI50: 27.2 µM and 3.27 µM
  TGI: 79 µM and 11.1 µM
EKVX NSCLC
  GI50: 100 µM and 20 µM
  TGI: > 100 µM and 39.9 µM
SR leukemia
  TGI: 9.54 µM
HCT-116 colon
  TGI: 31.8 µM and 28.1 µM
MOLT-4 leukemia
  GI50: 7010 nM and 1340 nM
MALME-3M melanoma
  GI50: 16.8 µM and 6.59 µM
  TGI: 31 µM and 16 µM
SK-MEL-28 melanoma
  GI50: 18.4 µM and 4.98 µM
  TGI: 32.8 µM and 15.6 µM
HOP-62 NSCLC
  TGI: 37.6 µM and 44.4 µM
TK-10 renal
  TGI: 32.4 µM and 26.6 µM
KM12 colon
  TGI: 36.9 µM and 33.3 µM

## ClC1c2ccccc2C2(c3ccccc3)OOC1(c1ccccc1)O2 (centres undefined)
SNB-75 CNS
  TGI: 3.27 µM
EKVX NSCLC
  TGI: 4.62 µM
SR leukemia
  TGI: 3.4 µM
MOLT-4 leukemia
  TGI: 3.56 µM
MALME-3M melanoma
  TGI: 7.14 µM
SK-MEL-28 melanoma
  TGI: 3.8 µM
HOP-62 NSCLC
  TGI: 22.9 µM
TK-10 renal
  TGI: 4.4 µM
KM12 colon
  TGI: 3.63 µM

## O=C1CCSC(=S)N1c1ccc(Br)c(Cl)c1
SNB-75 CNS
  TGI: 52.6 µM
EKVX NSCLC
  TGI: > 100 µM
SR leukemia
  TGI: > 100 µM
HCT-116 colon
  TGI: > 100 µM
MOLT-4 leukemia
  TGI: > 100 µM
MALME-3M melanoma
  TGI: 49.8 µM
SK-MEL-28 melanoma
  TGI: 34.9 µM
HOP-62 NSCLC
  TGI: > 100 µM
TK-10 renal
  TGI: 78.2 µM
KM12 colon
  TGI: 85.9 µM

## O=C1/C(=C/c2ccc(Cl)c(Cl)c2)CNC/C1=C\c1ccc(Cl)c(Cl)c1
SNB-75 CNS
  TGI: 33.9 µM
EKVX NSCLC
  TGI: 13.6 µM
SR leukemia
  TGI: > 24 µM
HCT-116 colon
  TGI: 5.66 µM
MOLT-4 leukemia
  TGI: 28.3 µM
MALME-3M melanoma
  TGI: > 66.5 µM
SK-MEL-28 melanoma
  TGI: 62.9 µM
HOP-62 NSCLC
  TGI: 38.8 µM
TK-10 renal
  TGI: 80 µM
KM12 colon
  TGI: 24.9 µM

## CN(C)c1ccc(Nc2c3ccccc3nc3cc(NC(=O)CCN4CCCC4)ccc23)cc1
SNB-75 CNS
  GI50: 0.381 µM
  TGI: 1.72 µM
EKVX NSCLC
  GI50: 0.964 µM
  TGI: 2.62 µM
SR leukemia
  GI50: 42.1 nM
  TGI: 1.24 µM
HCT-116 colon
  GI50: 346 nM
  TGI: 1.61 µM
MOLT-4 leukemia
  GI50: 42 nM
  TGI: 1.07 µM
MALME-3M melanoma
  GI50: 1.12 µM
  TGI: 2.41 µM
SK-MEL-28 melanoma
  GI50: 1.46 µM
  TGI: 2.85 µM
HOP-62 NSCLC
  GI50: 235 nM
  TGI: 1.56 µM
TK-10 renal
  GI50: 1130 nM
  TGI: 3 µM
KM12 colon
  GI50: 497 nM
  TGI: 1.88 µM

## CN(C)CCNC(=O)c1c2ccccc2cc2ccccc12
SNB-75 CNS
  TGI: > 100 µM
EKVX NSCLC
  TGI: > 100 µM
SR leukemia
  TGI: 26.3 µM
HCT-116 colon
  TGI: > 100 µM
MOLT-4 leukemia
  TGI: 45 µM
MALME-3M melanoma
  TGI: > 100 µM
SK-MEL-28 melanoma
  TGI: 64.4 µM
HOP-62 NSCLC
  TGI: > 100 µM
TK-10 renal
  TGI: > 100 µM
KM12 colon
  TGI: > 100 µM

## Cc1ccc(-c2cc(-c3ccc(C)cc3)nc(N3CCN(CCNc4ccnc5cc(Cl)ccc45)CC3)n2)cc1
SNB-75 CNS
  GI50: 0.949 µM
  TGI: 2.23 µM
EKVX NSCLC
  GI50: 5.65 µM
  TGI: 20 µM
SR leukemia
  GI50: 675 nM
  TGI: > 50 µM
HCT-116 colon
  GI50: 1660 nM
  TGI: 6.91 µM
MOLT-4 leukemia
  GI50: 6250 nM
  TGI: > 50 µM
MALME-3M melanoma
  GI50: 1.07 µM
  TGI: 2.28 µM
SK-MEL-28 melanoma
  GI50: 1.91 µM
  TGI: 9.82 µM
HOP-62 NSCLC
  GI50: 1580 nM
  TGI: 6.52 µM
TK-10 renal
  GI50: 2290 nM
  TGI: 8.12 µM
KM12 colon
  GI50: 5700 nM
  TGI: 39.2 µM
